Drawing on PubChem BioAssay AID248 (DTP/NCI, 2004), this text covers T/C for 18 molecules.

For the experiment, the system named is L1210 leukemia ip in BDF1 mice, survival T/C. The experiment can be described thus: NCI In Vivo Anticancer Drug Screen. Data for tumor model L1210 Leukemia (intraperitoneal) in B6D2F1 (BDF1) mice. To be noted: endpoint: mean survival time, higher = longer survival. The procedure, abridged: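 Antitumor effect is assessed in tumor-bearing animals. Survival in the compound arm is compared with a vehicle-dosed control arm and expressed as their quotient.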

Where [1] appears, read: dose: 100.0 mg/kg/injection, schedule: Q04DX003 (ip), vehicle: saline with Tween-80.
Where [2] appears, read: dose: 200.0 mg/kg/injection, schedule: Q04DX003 (ip), vehicle: saline with Tween-80.
Where [3] appears, read: dose: 400.0 mg/kg/injection, schedule: Q04DX003 (ip), vehicle: saline with Tween-80.
Where [4] appears, read: dose: 50.0 mg/kg/injection, schedule: Q01DX001 (ip), vehicle: other.
[5] abbreviates: dose: 100.0 mg/kg/injection, schedule: Q01DX001 (ip), vehicle: other.
Setting [6] is: dose: 100.0 mg/kg/injection, schedule: Q04DX002 (ip), vehicle: Klucel (hydroxypropylcellulose) (HPC).
Setting [7] is: dose: 200.0 mg/kg/injection, schedule: Q01DX001 (ip), vehicle: other.
The mark [8] stands for this setting: dose: 200.0 mg/kg/injection, schedule: Q04DX002 (ip), vehicle: Klucel (hydroxypropylcellulose) (HPC).
The mark [9] stands for this setting: dose: 400.0 mg/kg/injection, schedule: Q04DX002 (ip), vehicle: Klucel (hydroxypropylcellulose) (HPC).
Where [10] appears, read: dose: 50.0 mg/kg/injection, schedule: Q01DX001 (ip), vehicle: carboxymethylcellulose (CMC).
The mark [11] stands for this setting: dose: 100.0 mg/kg/injection, schedule: Q01DX001 (ip), vehicle: carboxymethylcellulose (CMC).
The mark [12] stands for this setting: dose: 100.0 mg/kg/injection, schedule: Q01DX009 (ip), vehicle: Klucel (hydroxypropylcellulose) (HPC).
[13] abbreviates: dose: 200.0 mg/kg/injection, schedule: Q01DX001 (ip), vehicle: carboxymethylcellulose (CMC).
[14] abbreviates: dose: 200.0 mg/kg/injection, schedule: Q01DX009 (ip), vehicle: Klucel (hydroxypropylcellulose) (HPC).
The mark [15] stands for this setting: dose: 400.0 mg/kg/injection, schedule: Q01DX001 (ip), vehicle: carboxymethylcellulose (CMC).
[16] abbreviates: dose: 400.0 mg/kg/injection, schedule: Q01DX009 (ip), vehicle: Klucel (hydroxypropylcellulose) (HPC).
The mark [17] stands for this setting: dose: 50.0 mg/kg/injection, schedule: Q01DX009 (ip), vehicle: Klucel (hydroxypropylcellulose) (HPC).
The mark [18] stands for this setting: dose: 10.0 mg/kg/injection, schedule: Q01DX001 (ip), vehicle: saline.

Values joined by “and” are separate entries in the source; they are usually repeats but may differ in a detail not shown here. Equal entries are not always repeated. Inconclusive results and toxic doses are left out.

With `C[n+]1ccc(/C=C/c2csc3ccccc23)cc1`, the T/C was 107 % of control (dose: 5.0 mg/kg/injection, schedule: Q01DX001 (ip), vehicle: carboxymethylcellulose (CMC)); 96 % of control (dose: 10.0 mg/kg/injection, schedule: Q01DX001 (ip), vehicle: carboxymethylcellulose (CMC)); 91 % of control (dose: 20.0 mg/kg/injection, schedule: Q01DX001 (ip), vehicle: carboxymethylcellulose (CMC)); 98 % of control (dose: 40.0 mg/kg/injection, schedule: Q01DX001 (ip), vehicle: carboxymethylcellulose (CMC)).

For `c1ccc(CC2SCCCS2)cc1`, the T/C is, setting by setting: (dose: 100.0 mg/kg/injection, schedule: Q01DX009 (ip), vehicle: saline with Tween-80) 103 % of control; under setting [1], 108 % of control; (dose: 200.0 mg/kg/injection, schedule: Q01DX009 (ip), vehicle: saline with Tween-80) 88 % of control; under setting [2], 95 % of control; (dose: 400.0 mg/kg/injection, schedule: Q01DX009 (ip), vehicle: saline with Tween-80) 99 % of control; under setting [3], 95 % of control.

For the molecule `COc1cccc(C(=O)O)c1[N+](=O)[O-]`, the T/C under setting [4] was 103 % of control; the T/C under setting [5] was 97 % of control; the T/C under setting [6] is 106 % of control; the T/C under setting [7] is 115 % of control; the T/C under setting [8] was 95 % of control; the T/C (dose: 400.0 mg/kg/injection, schedule: Q01DX001 (ip), vehicle: other) was 97 % of control. Besides, under setting [9], the T/C is 88 % of control.

As to `CC(C)CCS(=O)(=O)OCCCCOS(=O)(=O)CCC(C)C`, the T/C was 109 % of control under setting [10]; 104 % of control under setting [11]; 106 % of control under setting [12]; 105 % of control (dose: 100.0 mg/kg/injection, schedule: Q04DX003 (ip), vehicle: Klucel (hydroxypropylcellulose) (HPC)); 101 % of control under setting [13]; 102 % of control under setting [14]. Also, the T/C runs as follows: (dose: 200.0 mg/kg/injection, schedule: Q04DX003 (ip), vehicle: Klucel (hydroxypropylcellulose) (HPC)) 105 % of control; under setting [15], 103 % of control; under setting [16], 109 % of control; (dose: 400.0 mg/kg/injection, schedule: Q04DX003 (ip), vehicle: Klucel (hydroxypropylcellulose) (HPC)) 106 % of control.

On to `CCOC(=O)c1[nH]c(C)c(CCC(=O)OC)c1C`, for which the T/C was 103 % of control under setting [17]; 95 % of control (dose: 100.0 mg/kg/injection, schedule: Q01DX001 (ip), vehicle: Klucel (hydroxypropylcellulose) (HPC)); 107 % of control under setting [12]; 93 % of control (dose: 200.0 mg/kg/injection, schedule: Q01DX001 (ip), vehicle: Klucel (hydroxypropylcellulose) (HPC)); 100 % of control (dose: 300.0 mg/kg/injection, schedule: Q01DX009 (ip), vehicle: Klucel (hydroxypropylcellulose) (HPC)); 95 % of control (dose: 400.0 mg/kg/injection, schedule: Q01DX001 (ip), vehicle: Klucel (hydroxypropylcellulose) (HPC)).

On to `CCCCN(CCCC)C(=N)c1c(C)cc(C)cc1C`, for which the T/C runs as follows: (dose: 2.5 mg/kg/injection, schedule: Q01DX001 (ip), vehicle: saline) 101 % of control; (dose: 5.0 mg/kg/injection, schedule: Q01DX001 (ip), vehicle: saline) 105 % of control and 106 % of control and 108 % of control; (dose: 7.0 mg/kg/injection, schedule: Q01DX001 (ip), vehicle: saline) 94 % of control and 104 % of control; under setting [18], 98 % of control and 101 % of control and 110 % of control; (dose: 15.0 mg/kg/injection, schedule: Q01DX001 (ip), vehicle: saline) 102 % of control and 104 % of control.

As to `CCOC(=O)N1c2ccc(Cl)cc2C=CC1C#N` (stereo not drawn), the T/C is, setting by setting: (dose: 100.0 mg/kg/injection, schedule: Q01DX009 (ip), vehicle: gum acacia) 91 % of control; (dose: 100.0 mg/kg/injection, schedule: Q04DX003 (ip), vehicle: gum acacia) 103 % of control; (dose: 200.0 mg/kg/injection, schedule: Q01DX009 (ip), vehicle: gum acacia) 91 % of control; (dose: 200.0 mg/kg/injection, schedule: Q04DX003 (ip), vehicle: gum acacia) 97 % of control; (dose: 400.0 mg/kg/injection, schedule: Q04DX003 (ip), vehicle: gum acacia) 92 % of control.

In the case of `CC(=O)NC1(C#N)c2ccccc2-c2ccccc21`, the T/C was 104 % of control under setting [10], 104 % of control under setting [11], 102 % of control under setting [13] and 104 % of control under setting [15].

With `[O]=[Sb]([OH])([c]1ccccc1)[c]1ccccc1`, the T/C reads like this: under setting [18], 87 % of control; (dose: 20.0 mg/kg/injection, schedule: Q01DX001 (ip), vehicle: saline) 91 % of control.

Turning to `CCN(CC)CCOC(=O)c1ccc(Cl)cc1`, the T/C is 100 % of control (dose: 50.0 mg/kg/injection, schedule: Q01DX009 (ip), vehicle: saline); 96 % of control (dose: 100.0 mg/kg/injection, schedule: Q01DX009 (ip), vehicle: saline); 96 % of control (dose: 200.0 mg/kg/injection, schedule: Q01DX009 (ip), vehicle: saline).

Regarding `C[Si](C)(C)CCc1ccccc1`, the T/C was 98 % of control under setting [1], 95 % of control under setting [2] and 93 % of control under setting [3].

For the molecule `c1ccc(CSCc2ccccc2)cc1`, the T/C was 97 % of control under setting [17]; 105 % of control under setting [12]; 105 % of control under setting [6]; 96 % of control under setting [1]; 102 % of control and 86 % of control under setting [14]; 105 % of control under setting [8]. For the same molecule, the T/C is 104 % of control under setting [2], 86 % of control under setting [16], 105 % of control under setting [9] and 96 % of control under setting [3].

In the case of `Nc1ccn(C2OC(COC(=O)C34CC5CC(CC(C5)C3)C4)C(O)C2O)c(=O)n1` (stereo not drawn), the T/C was 156 % of control and 170 % of control under setting [4]; 165 % of control and 248 % of control under setting [5]; 213 % of control and 300 % of control under setting [7].

For the molecule `COP1(=O)C=C(C)CC1` (stereo not drawn), the T/C (dose: 100.0 mg/kg/injection, schedule: Q01DX001 (ip), vehicle: saline) was 95 % of control; the T/C (dose: 200.0 mg/kg/injection, schedule: Q01DX001 (ip), vehicle: saline) was 95 % of control; the T/C (dose: 400.0 mg/kg/injection, schedule: Q01DX001 (ip), vehicle: saline) was 95 % of control.

Consider `N#CSCC1OCC(C(O)C(O)C2COC(CSC#N)O2)O1` (stereo not drawn), for which the T/C was 95 % of control under setting [6], 98 % of control under setting [8] and 95 % of control under setting [9].

As to `O=C1NC(=S)SC1N=Nc1ccc(S(=O)(=O)Nc2ncccn2)cc1` (stereo not drawn), the T/C is 104 % of control (dose: 75.0 mg/kg/injection, schedule: Q01DX001 (ip), vehicle: saline); 102 % of control (dose: 150.0 mg/kg/injection, schedule: Q01DX001 (ip), vehicle: saline); 100 % of control (dose: 300.0 mg/kg/injection, schedule: Q01DX001 (ip), vehicle: saline).

For the molecule `[Cl][Ni].[NH-]C(Cc1ccccc1)C(=O)O` (stereo not drawn), the T/C is 98 % of control (dose: 6.25 mg/kg/injection, schedule: Q04DX003 (ip), vehicle: saline); 98 % of control (dose: 12.5 mg/kg/injection, schedule: Q04DX003 (ip), vehicle: saline); 91 % of control (dose: 25.0 mg/kg/injection, schedule: Q04DX003 (ip), vehicle: saline).

In the case of `Cc1cccc(C(=O)OCc2ccccc2CN2CCCCC2)c1`, the T/C (dose: 25.0 mg/kg/injection, schedule: Q04DX002 (ip), vehicle: Klucel (hydroxypropylcellulose) (HPC)) is 105 % of control; the T/C (dose: 50.0 mg/kg/injection, schedule: Q04DX002 (ip), vehicle: Klucel (hydroxypropylcellulose) (HPC)) was 105 % of control; the T/C under setting [6] was 105 % of control.
